In PubChem BioAssay (NCI):
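Tested at 5 concentrations; 48 h exposure; 96-well plates; endpoints linearly interpolated, else capped at highest concentration. Here, GI50 denotes the concentration required for 50% inhibition of growth. TGI: concentration producing complete growth inhibition.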

Tests used:
Experiment in all cases: inhibition of tumour cell growth, NCI panel, 48 h
[1] = test system: HOP-92 NSCLC
[2] = test system: MCF7 breast
[3] = test system: NCI/ADR-RES ovarian
[4] = test system: HOP-62 NSCLC
[5] = test system: HCT-15 colon
[6] = test system: ACHN renal
[7] = test system: RXF 393 renal
[8] = test system: MDA-MB-231 breast
[9] = test system: MDA-MB-435
[10] = test system: EKVX NSCLC
[11] = test system: UACC-62 melanoma
[12] = test system: SK-OV-3 ovarian
[13] = test system: DU-145 prostate
[14] = test system: HL-60(TB) leukemia
[15] = test system: BT-549 breast
[16] = test system: SK-MEL-5 melanoma
[17] = test system: IGROV1 ovarian
[18] = test system: SF-539 CNS
[19] = test system: T-47D breast
[20] = test system: SNB-75 CNS
[21] = test system: A498 renal
[22] = test system: K-562 leukemia
[23] = test system: KM12 colon
[24] = test system: CAKI-1 renal
[25] = test system: HT29 colon
[26] = test system: SK-MEL-2 melanoma
[27] = test system: M14 melanoma
[28] = test system: SR leukemia
[29] = test system: UACC-257 melanoma
[30] = test system: OVCAR-4 ovarian
[31] = test system: NCI-H226 lung
[32] = test system: NCI-H522 lung
[33] = test system: HCC-2998 colon
[34] = test system: COLO 205 colon
[35] = test system: MALME-3M melanoma
[36] = test system: A549 NSCLC
[37] = test system: RPMI-8226 leukemia
[38] = test system: SNB-19 CNS
[39] = test system: MOLT-4 leukemia
[40] = test system: HS 578T breast
[41] = test system: SF-268 CNS
[42] = test system: 786-0 renal
[43] = test system: CCRF-CEM leukemia
[44] = test system: TK-10 renal
[45] = test system: SN12C renal
[46] = test system: SW-620 colon
[47] = test system: SF-295 CNS
[48] = test system: OVCAR-8 ovarian
[49] = test system: U251 CNS
[50] = test system: UO-31 renal
[51] = test system: NCI-H23 lung
[52] = test system: NCI-H460 lung
[53] = test system: HCT-116 colon
[54] = test system: SK-MEL-28 melanoma
[55] = test system: OVCAR-5 ovarian
[56] = test system: PC-3 prostate

Compound: CN(Cc1ccccc1)S(=O)(=O)/N=C1\NC(=O)NC1=C(Cl)Cl
- GI50 [1]: 1740 nM
- TGI [1]: 3.36 µM
- GI50 [2]: 338 nM
- TGI [2]: 13.5 µM
- GI50 [3]: 2100 nM
- TGI [3]: 4.96 µM
- GI50 [4]: 3.01 µM
- TGI [4]: 11.5 µM
- GI50 [5]: 1520 nM
- TGI [5]: 3.11 µM
- GI50 [6]: 1770 nM
- TGI [6]: 3.19 µM
- GI50 [7]: 1800 nM
- TGI [7]: 3.51 µM
- GI50 [8]: 1790 nM
- TGI [8]: 3.3 µM
- GI50 [9]: 1800 nM
- TGI [9]: 3.45 µM
- GI50 [10]: 1840 nM
- TGI [10]: 3.81 µM
- GI50 [11]: 1730 nM
- TGI [11]: 3.32 µM
- GI50 [12]: 15.7 µM
- TGI [12]: 29.2 µM
- GI50 [13]: 2370 nM
- TGI [13]: 5.34 µM
- GI50 [14]: 2080 nM
- TGI [14]: 5.35 µM
- GI50 [15]: 1880 nM
- TGI [15]: 3.47 µM
- GI50 [16]: 2050 nM
- TGI [16]: 4.27 µM
- GI50 [17]: 1880 nM
- TGI [17]: 3.75 µM
- GI50 [18]: 1740 nM
- TGI [18]: 3.25 µM
- GI50 [19]: 1590 nM
- TGI [19]: 21.8 µM
- GI50 [20]: 2040 nM
- TGI [20]: 9.32 µM
- GI50 [21]: 2190 nM
- TGI [21]: 6.31 µM
- GI50 [22]: 1040 nM
- TGI [22]: > 100 µM
- GI50 [23]: 270 nM
- TGI [23]: 744 nM
- GI50 [24]: 1670 nM
- TGI [24]: 3.12 µM
- GI50 [25]: 2070 nM
- TGI [25]: 4.72 µM
- GI50 [26]: 2760 nM
- TGI [26]: 7.84 µM
- GI50 [27]: 1760 nM
- TGI [27]: 3.51 µM
- GI50 [28]: 525 nM
- TGI [28]: 11.5 µM
- GI50 [29]: 2220 nM
- TGI [29]: 5.29 µM
- GI50 [30]: 1840 nM
- TGI [30]: 3.64 µM
- GI50 [31]: 2210 nM
- TGI [31]: 5.42 µM
- GI50 [32]: 1990 nM
- TGI [32]: 4.31 µM
- GI50 [33]: 1730 nM
- TGI [33]: 3.3 µM
- GI50 [34]: 1960 nM
- TGI [34]: 3.98 µM
- GI50 [35]: 1790 nM
- TGI [35]: 3.48 µM
- GI50 [36]: 3.9 µM
- TGI [36]: 16.8 µM
- GI50 [37]: 323 nM
- TGI [37]: 1900 nM
- GI50 [38]: 2230 nM
- TGI [38]: 5.32 µM
- GI50 [39]: 2520 nM
- TGI [39]: 7.03 µM
- GI50 [40]: 2820 nM
- TGI [40]: 8.87 µM
- GI50 [41]: 2460 nM
- TGI [41]: 7.02 µM
- GI50 [42]: 2060 nM
- TGI [42]: 4.6 µM
- GI50 [43]: 1940 nM
- TGI [43]: 5.08 µM
- GI50 [44]: 2470 nM
- TGI [44]: 29.9 µM
- GI50 [45]: 1810 nM
- TGI [45]: 3.38 µM
- GI50 [46]: 1800 nM
- TGI [46]: 3.55 µM
- GI50 [47]: 3.51 µM
- TGI [47]: 12.2 µM
- GI50 [48]: 2370 nM
- TGI [48]: 6.26 µM
- GI50 [49]: 1830 nM
- TGI [49]: 3.53 µM
- GI50 [50]: 2450 nM
- TGI [50]: 10.4 µM
- GI50 [51]: 1790 nM
- TGI [51]: 3.55 µM
- GI50 [52]: 2390 nM
- TGI [52]: 5.68 µM
- GI50 [53]: 1940 nM
- TGI [53]: 3.81 µM
- GI50 [54]: 1770 nM
- TGI [54]: 3.29 µM
- GI50 [55]: 1690 nM
- TGI [55]: 3.17 µM
- GI50 [56]: 2020 nM
- TGI [56]: 4.39 µM
